Results from patent US10144732B2 (BIOGEN MA INC., priority 2014, dated 2018).
“And” between values parts separate entries of the source, which are not always exact repeats. Equal entries are not always repeated. Structures can show the parent of a compound that is named as a salt.

Target: T1, Human ATX protein (Homo sapiens, UniProt Q13822)
T1 construct: made in house
Experiment: ATX biochemical assay (FRET, FS-3 substrate)
Conditions: FRET assay, FS-3 2 μM, ATX 1.0 μg/mL, 30 minutes preincubation, 2 hours reaction at room temperature; read-out: IC50
Procedure, shortened: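 In-house human ATX (1.0 μg/mL final) was preincubated with compound for 30 min at room temperature in Tris buffer pH 7.4 with 1 mg/mL fatty acid free-BSA. FS-3 substrate (2 μM final) was then hydrolysed for 2 hours at room temperature, protected from light, and read as fluorescence at ex 485/em 538 nm.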

| Compound | IC50 |
| --- | --- |
| O=C(O)C1CCC(CC(=O)N2CCc3c(C(F)(F)F)nn(-c4ccccc4)c3C2)CC1 (stereo in doubt) [Example 5-21, cis-4-(2-Oxo-2-(1-phenyl-3-(trifluoromethyl)-4,5-dihydro-1H-pyrazolo[3,4-c]pyridin-6(7H)-yl)ethyl)cyclohexanecarboxylic acid] | > 500 nM and ≤ 10000 nM |
| CC(C)(C)OC(=O)N1CC(CC(=O)N2CCc3c(C(F)(F)F)nn(Cc4ccc(Cl)cc4F)c3C2)C[C@H]1C(=O)O (stereo partly drawn) [Example 5-18, (2S)-1-(tert-Butoxycarbonyl)-4-(2-(1-(4-chloro-2-fluorobenzyl)-3-(trifluoromethyl)-4,5-dihydro-1H-pyrazolo[3,4-c]pyridin-6(7H)-yl)-2-oxoethyl)pyrrolidine-2-carboxylic acid] | ≤ 100 nM |
| O=C(C1CCCCC1)N1CCc2c(C(F)(F)F)nn(Cc3ccc(Cl)cc3F)c2C1 [Example 1-6, (1-(4-Chloro-2-fluorobenzyl)-3-(trifluoromethyl)-4,5-dihydro-1H-pyrazolo[3,4-c]pyridin-6(7H)-yl) (cyclohexyl)methanone] | > 10000 nM |
| O=C(O)C1CCCN(CC(=O)N2CCc3c(C(F)(F)F)nn(Cc4ccc(Cl)cc4F)c3C2)C1 (stereo not drawn) [Example 13-3, 1-(2-(1-(4-Chloro-2-fluorobenzyl)-3-(trifluoromethyl)-4,5-dihydro-1H-pyrazolo[3,4-c]pyridin-6(7H)-yl)-2-oxoethyl)piperidine-3-carboxylic acid] | ≤ 100 nM |
| O=C(O)CCNCC(=O)N1CCc2c(C(F)(F)F)nn(Cc3ccc(Cl)cc3F)c2C1 [Example 13-32, 3-(2-(1-(4-Chloro-2-fluorobenzyl)-3-(trifluoromethyl)-4,5-dihydro-1H-pyrazolo[3,4-c]pyridin-6(7H)-yl)-2-oxoethylamino)propanoic acid TFA salt] | ≤ 100 nM |
| O=C(O)CCN1CCC(C(=O)N2CCc3c(C(F)(F)F)nn(Cc4ccc(Cl)cc4F)c3C2)C1 (stereo not drawn) [Example 15-3, 3-(3-(1-(4-chloro-2-fluorobenzyl)-3-(trifluoromethyl)-4,5,6,7-tetrahydro-1H-pyrazolo[3,4-c]pyridine-6-carbonyl)pyrrolidin-1-yl)propanoic acid] | > 10000 nM |
| O=C(O[C@H]1CC[C@@H](C(=O)O)CC1)N1CCc2c(C(F)(F)F)nn(Cc3ccc(Cl)cc3F)c2C1 [Example 7-9, cis-4-((1-(4-Chloro-2-fluorobenzyl)-3-(trifluoromethyl)-4,5,6,7-tetrahydro-1H-pyrazolo[3,4-c]pyridine-6-carbonyl)oxy)cyclohexanecarboxylic acid] | ≤ 100 nM |
| NC12CCC(C(=O)N3CCc4c(C(F)(F)F)nn(Cc5ccc(F)cc5)c4C3)(CC1)CC2 [Example 9-9, (4-Aminobicyclo[2.2.2]octan-1-yl)(1-(4-fluorobenzyl)-3-(trifluoromethyl)-4,5-dihydro-1H-pyrazolo[3,4-c]pyridin-6(7H)-yl)methanone TFA salt] | 100 to 250 nM |
| CCOC(=O)[C@H]1CC[C@H](CC(=O)N2CCc3c(C(F)(F)F)nn(Cc4cc(F)cc(Cl)c4)c3C2)CC1 [Example 2-3, trans-Ethyl 4-(2-(1-(3-chloro-5-fluorobenzyl)-3-(trifluoromethyl)-4,5-dihydro-1H-pyrazolo[3,4-c]pyridin-6(7H)-yl)-2-oxoethyl)cyclohexanecarboxylate] | ≤ 100 nM |
| CCOC(=O)[C@H]1CC[C@H](CC(=O)N2CCc3c(C(F)(F)F)nn(Cc4ccc(F)cc4F)c3C2)CC1 [Example 1-50, trans-Ethyl 4-(2-(1-(2,4-difluorobenzyl)-3-(trifluoromethyl)-4,5-dihydro-1H-pyrazolo[3,4-c]pyridin-6(7H)-yl)-2-oxoethyl)cyclohexanecarboxylate] | ≤ 100 nM |
| CCOC(=O)[C@H]1CC[C@H](CC(=O)N2CCc3c(C(F)(F)F)nn(Cc4ccsc4)c3C2)CC1 [Example 1-45, trans-Ethyl-4-(2-oxo-2-(1-(thiophen-3-ylmethyl)-3-(trifluoromethyl)-4,5-dihydro-1H-pyrazolo[3,4-c]pyridin-6(7H)-yl)ethyl)cyclohexanecarboxylate] | ≤ 100 nM |

More lines, now with the values ahead:

| IC50 | Compound |
| --- | --- |
| ≤ 100 nM | O=C(O)C1CCN(CC(=O)N2CCc3c(C(F)(F)F)nn(Cc4ccc(F)cc4)c3C2)CC1 [Example 13-1, 1-(2-(1-(4-Fluorobenzyl)-3-(trifluoromethyl)-4,5-dihydro-1H-pyrazolo[3,4-c]pyridin-6(7H)-yl)-2-oxoethyl)piperidine-4-carboxylic acid] |
| ≤ 100 nM | O=C(O)C1CC2(C1)CN(CC(=O)N1CCc3c(C(F)(F)F)nn(Cc4ccc(Cl)cc4F)c3C1)C2 [Example 13-21, 2-(2-(1-(4-Chloro-2-fluorobenzyl)-3-(trifluoromethyl)-4,5-dihydro-1H-pyrazolo[3,4-c]pyridin-6(7H)-yl)-2-oxoethyl)-2-azaspiro[3.3]heptane-6-carboxylic acid TFA salt] |
| ≤ 100 nM | NC(=O)[C@H]1CC[C@H](CC(=O)N2CCc3c(C(F)(F)F)nn(Cc4ccc(F)cc4)c3C2)CC1 [Example 20-2, trans-4-(2-(1-(4-Fluorobenzyl)-3-(trifluoromethyl)-4,5-dihydro-1H-pyrazolo[3,4-c]pyridin-6(7H)-yl)-2-oxoethyl)cyclohexanecarboxamide] |
| ≤ 100 nM | O=C(O)C1CC2CN(CC(=O)N3CCc4c(C(F)(F)F)nn(Cc5ccc(F)cc5)c4C3)CC2C1 (stereo not drawn) [Example 13-10, 2-(2-(1-(4-Fluorobenzyl)-3-(trifluoromethyl)-4,5-dihydro-1H-pyrazolo[3,4-c]pyridin-6(7H)-yl)-2-oxoethyl)octahydrocyclopenta[c]pyrrole-5-carboxylic acid TFA salt] |
| ≤ 100 nM | O=C(C[C@H]1CC[C@H](C(=O)O)CC1)N1CCc2c(C(F)(F)F)nn(Cc3ccncc3)c2C1 [Example 5-24, trans-4-(2-Oxo-2-(1-(pyridin-4-ylmethyl)-3-(trifluoromethyl)-4,5-dihydro-1H-pyrazolo[3,4-c]pyridin-6(7H)-yl)ethyl)cyclohexanecarboxylic acid] |
| ≤ 100 nM | CCC1CC(CC(=O)N2CCc3c(C(F)(F)F)nn(Cc4ccc(F)cc4)c3C2)CCN1C(=O)OC(C)(C)C (stereo not drawn) [Example 8-8, tert-Butyl 2-ethyl-4-(2-(1-(4-fluorobenzyl)-3-(trifluoromethyl)-4,5-dihydro-1H-pyrazolo[3,4-c]pyridin-6(7H)-yl)-2-oxoethyl)piperidine-1-carboxylate] |
| ≤ 100 nM | O=C(C[C@H]1CC[C@H](C(=O)O)CC1)N1CCc2c(C(F)(F)F)nn(Cc3ccc(F)cc3)c2C1 [Example 7-1, trans-4-(2-(1-(4-Fluorobenzyl)-3-(trifluoromethyl)-4,5-dihydro-1H-pyrazolo[3,4-c]pyridin-6(7H)-yl)-2-oxoethyl)cyclohexanecarboxylic acid] |
| ≤ 100 nM | O=C(C[C@H]1CC[C@@H](N2CC(F)(F)C2)CC1)N1CCc2c(C(F)(F)F)nn(Cc3ccc(F)cc3)c2C1 [Example 22-7, 2-(cis-4-(3,3-Difluoroazetidin-1-yl)cyclohexyl)-1-(1-(4-fluorobenzyl)-3-(trifluoromethyl)-4,5-dihydro-1H-pyrazolo[3,4-c]pyridin-6(7H)-yl)ethanone TFA salt] |
| ≤ 100 nM | O=C(O)CN1CCC(C(=O)N2CCc3c(C(F)(F)F)nn(Cc4ccc(Cl)cc4F)c3C2)C1 (stereo not drawn) [Example 15-5, 2-(3-(1-(4-Chloro-2-fluorobenzyl)-3-(trifluoromethyl)-4,5,6,7-tetrahydro-1H-pyrazolo[3,4-c]pyridine-6-carbonyl)pyrrolidin-1-yl)acetic acid TFA salt] |
| ≤ 100 nM | O=C(C[C@H]1CC[C@@H](C(=O)O)CC1)N1CCc2cnn(Cc3ccc(Cl)cc3F)c2C1 [Example 7-4, cis-4-(2-(1-(4-chloro-2-fluorobenzyl)-4,5-dihydro-1H-pyrazolo[3,4-c]pyridin-6(7H)-yl)-2-oxoethyl)cyclohexanecarboxylic acid] |
| ≤ 100 nM | COC(=O)[C@H]1CC[C@@H](NC(=O)N2CCc3c(C(F)(F)F)nn(Cc4ccc(Cl)cc4F)c3C2)CC1 [Example 3-1, cis-Methyl 4-(1-(4-chloro-2-fluorobenzyl)-3-(trifluoromethyl)-4,5,6,7-tetrahydro-1H-pyrazolo[3,4-c]pyridine-6-carboxamido)cyclohexanecarboxylate] |
| ≤ 100 nM | O=C(O)C[C@H]1CC[C@H](CC(=O)N2CCc3c(C(F)(F)F)nn(Cc4ccc(F)cc4)c3C2)CC1 [Example 5-48, 2-(trans-4-(2-(1-(4-Fluorobenzyl)-3-(trifluoromethyl)-4,5-dihydro-1H-pyrazolo[3,4-c]pyridin-6(7H)-yl)-2-oxoethyl)cyclohexyl)acetic acid] |
| ≤ 100 nM | O=C(O)CCCCC(=O)N1CCc2c(C(F)(F)F)nn(Cc3ccc(Cl)cc3F)c2C1 [Example 14-1, 6-(1-(4-Chloro-2-fluorobenzyl)-3-(trifluoromethyl)-4,5-dihydro-1H-pyrazolo[3,4-c]pyridin-6(7H)-yl)-6-oxohexanoic acid] |
| ≤ 100 nM | O=C(O)CCCC(=O)N1CCc2c(C(F)(F)F)nn(Cc3ccc(Cl)cc3F)c2C1 [Example 14-2, 5-(1-(4-Chloro-2-fluorobenzyl)-3-(trifluoromethyl)-4,5-dihydro-1H-pyrazolo[3,4-c]pyridin-6(7H)-yl)-5-oxopentanoic acid] |
| ≤ 100 nM | O=C(CC1CCCNC1)N1CCc2c(C(F)(F)F)nn(Cc3ccc(F)cc3)c2C1 (stereo not drawn) [Example 9-4, 1-(1-(4-Fluorobenzyl)-3-(trifluoromethyl)-4,5-dihydro-1H-pyrazolo[3,4-c]pyridin-6(7H)-yl)-2-(piperidin-3-yl)ethanone HCl salt] |
| ≤ 100 nM | CC(C)(C)OC(=O)N1CCC(CC(=O)N2CCc3c(C(F)(F)F)nn(Cc4ccc(Cl)cc4F)c3C2)CC1C(F)(F)F (stereo not drawn) [Example 8-7, tert-Butyl 4-(2-(1-(4-chloro-2-fluorobenzyl)-3-(trifluoromethyl)-4,5-dihydro-1H-pyrazolo[3,4-c]pyridin-6(7H)-yl)-2-oxoethyl)-2-(trifluoromethyl)piperidine-1-carboxylate] |
